Assay results from BindingDB's records for doi:10.1021/jm00100a013 (Medical University of South Carolina, 1992).

What follows are molecules tested against Folylpolyglutamate synthase (Sus scrofa) (assay: Inhibitory activity against hog liver Folyl polyglutamate synthetase (FPGS)).

Ki [µM]	Compound
0.0088	NCCCC(NC(=O)c1ccc(NCc2ccc3nc(N)[nH]c(=O)c3c2C(F)(F)F)cc1)C(=O)O (centres undefined)
0.011	NCCCC(NC(=O)c1ccc(CNc2ccc3nc(N)[nH]c(=O)c3c2C(F)(F)F)cc1)C(=O)O (centres undefined)
0.9	NCCCC(NC(=O)c1ccc(CNc2ccc3nc(N)[nH]c(=O)c3c2F)cc1)C(=O)O (centres undefined)
0.5	NCCCC(NC(=O)c1ccc(CNc2ccc3nc(N)[nH]c(=O)c3c2Cl)cc1)C(=O)O (centres undefined)
